System: total cells in bronchoalveolar lavage fluid
Assay: Total cell count in bronchoalveolar lavage fluid, PM10D respiratory injury inflammation model
Format: in vivo, Balb/c mice
Details: vitamin B5 inhaled at 6 mg/kg or more, compared to the induced group and the oral administration group
Method: As an experimental animal, Balb/c mice (male, 6 weeks old, body weight of 15 to 17 g) were purchased from Coretech after receiving approval from the Institutional Animal Care and Use Committee (IACUC). After acclimatization for one week in the breeding room of the KT&G Bio-Efficacy Evaluation Center (temperature 23±2° C., humidity 50±10%, 12-hour light/dark cycle), the mice were used in the experiment. A PM10D mixture was prepared by diluting 3 mg/mL of particulate matter 10 (hereinafter PM10) [ERM-CZ120, Sigma Aldrich, St. Louis, MO, USA] and 0.6 mg/mL of diesel particulate matter (hereinafter DEP) [NIST-2975, Sigma Aldrich, St. Louis, MO, USA] in 1% Alum (Aluminium Hydroxide, 239186, Sigma Aldrich, USA). […] The exposure amount of aerosol (mg/L) was calculated as a dose (mg/kg) using a calculation formula based on a prior art (Alexander et al., Inhal Toxicol. 2008 October; 20(13):1179-89.). […] After centrifugation (1500 RPM/4° C./10 min) of the obtained bronchoalveolar lavage fluid, the supernatant was stored in an ultra-low temperature freezer (−70° C.) to measure cytokines, and cells isolated from the bronchoalveolar lavage fluid were treated with ammonium-chloride-potassium buffer (ACK, A10492-01, Gibco, NY, USA) solution for 10 minutes to lyse red blood cells, and then washed again with phosphate buffered saline, and the total cell count was measured using a hematocytometer. […]

CC(C)(CO)[C@@H](O)C(=O)NCCC(=O)O [vitamin B5, pantothenic acid]
Total cell count in bronchoalveolar lavage fluid (result in words): reduced
